Holding throughout (format): cell-based, rat
The test system of one data set is cortical neurons. Description: Glucose oxidase (GOX)-mediated cellular injury, Alamar blue cell viability. Here is the method:
To better assess the neuroprotective activity of curcumin, cell viability was determined for cortical neurons treated with 25 μM curcumin for 12 h followed by incubation for 2 h in the presence of glucose oxidase (100 mU/ml). This oxidant system generates hydrogen peroxide at a constant rate and is known to promote cellular injury in vitro^14. After treatment with glucose oxidase, cells were washed and exposed to complete medium containing 1% Alamar blue for 5 h according to manufacturers' instruction (Serotec, UK), in order to assess cell viability. After the 2 h incubation period, optical density in the medium of each well was measured using a plate reader (Molecular Devices; Crawley, UK). The assay is based on detection of metabolic activity of living cells using a redox indicator, which changes from oxidized (blue) to reduced (red) form. The intensity of the red color is proportional to the viability of cells, which is calculated as a difference in absorbance between 570 nm and 600 nm and expressed as a percentage of control. […] However, exposure of cells for 24 h to curcumin 25 μM reduced glucose oxidase-mediated damage and restored cell viability to 70% of control.
An inhibitor of HO-1 activity may be used to determine whether or not the effects of the polyphenolic compounds or analogs thereof are induced through the heme oxygenase signaling pathway. To understand the relevance of the induction of the stress protein HO-1 on the neuroprotective effects afforded by curcumin we treated cortical neuron exposed to β-amyloid with curcumin ([…]) alone or in the presence of tinprotoporphirine IX (SnPP) 40 μM, a specific inhibitor of HO-1 activity. The same treatment was performed in cortical neurons exposed to GOX-induced cellular damage.
In general terms: Alamar Blue is a resazurin reagent that responds to reducing activity.

The test system of the next data set is heme oxygenase. Description: Heme oxygenase activity assay in cortical neurons. Here is the method:
The ability of curcumin to interact with the heme oxygenase (HO) pathway in primary cortical neurons was tested. Cells were exposed to various concentrations of curcumin (1-100 μM) and heme oxygenase activity. HO-1 mRNA and protein expression were determined at different times after treatment. N-acetyl cysteine (NAC; 1 mM), a precursor of glutathione and a sulphydril donor with potent anti-oxidant properties, was also used to examine whether changes in heme oxygenase activity by curcumin are mediated by pro-oxidant mechanisms. Heme oxygenase activity assays were performed using a modified methodology previously described by […], et al.^15 Cells were washed with PBS, scraped off their plates, separated by centrifugation, and resuspended in a solution containing 100 mM PBS and 2mM MgCl2, freeze/thawed three times, and finally sonicated. The supernatant was added to a reaction mixture containing nicotinamide adenine dinucleotide phosphate (NADPH) (0.8 mM), glucose 6-phosphate (2 mM), glucose-6-phosphate dehydrogenase (0.2 units), 3 mg of rat liver cytosol prepared from a 105,000×g supernatant fraction as a source of biliverdin reductase, potassium phosphate buffer (PBS, 100 mM, pH 7.4), MgCl2 (0.2 mM), and hemin (20 μM). The reaction was conducted at 37° C. in the dark for 1 h and terminated by the addition of 1 ml of chloroform. The amount of extracted bilirubin was calculated by the difference in absorbance between 464 nm and 530 nm (ε=40 mM^-1 cm^-1). Heme oxygenase activity was expressed as picomoles of bilirubin/mg of cell protein/h. The total protein content of confluent cells was determined using a Bio-Rad DC protein assay (Bio-Rad; Herts, UK) by comparison with a standard curve obtained with bovine serum albumin.

The subject of the next data set is hsp70. The experiment in a line: hsp70 protein expression, Western blot, cortical neurons. Here is the method:
HO-1 and hsp70 protein levels were assessed by Western immunoblot technique using a polyclonal rabbit anti-HO-1 antibody (Stressgen; Victoria, Canada), and a polyclonal rabbit hsp70 antibody. Briefly, an equal amount of proteins (30 μg) for each sample was separated by SDS-polyacrylamide gel electrophoresis and transferred to nitrocellulose membranes, and the non-specific antibodies were blocked with 3% non-fat dried milk in PBS. Membranes were then probed with a polyclonal rabbit anti HO-1 antibody (Stressgen) (1:1000 dilution in Tris-buffered saline, pH 7,4) or with a monoclonal rabbit anti-Hsp72 antibody (Amersham Pharmacia Biotechnology) (1:1000 dilution in Tris-buffered saline, pH 7,4), that recognizes only the Hsp 70 inducible isoform. Blots were then visualized using an amplified alkaline phosphate kit from Sigma.
Background: In western blotting, separated proteins are transferred to a membrane and probed.

Another data set has as its system HO-1 mRNA. The experiment in a line: HO-1 mRNA expression, semi-quantitative RT-PCR, cortical neurons. Here is the method: A semi-quantitative RT-PCR was performed to investigate the activity of curcumin on HO-1 mRNA expression, using specific HO-1 primers (FIG. 8) that generated a 123 bp product. […] The HO-2 primers generated a 331-bp PCR product. […] In order to test the effects of polyphenolic compounds, or analogs thereof, on heme oxygenase activity, curcumin and CAPE were added to cortical neurons for analysis. Heme oxygenase activities resulting from curcumin and CAPE treatment are shown in FIGS. 7A and 9A, respectively. Neuroprotective protein expression is observed in FIGS. 7B-C and 9B. The activity of curcumin on HO-1 mRNA expression may be measured to ensure that heme oxygenase activity correlates with mRNA expression (FIG. 8). Semi-quantitative reverse transcriptase-polymerase chain reaction using HO-1 and HO-2 (control) forward and reverse primers are as follows: […]

The results in this text go back to US20040167217A1, “Neuroprotective effects of polyphenolic compounds” (priority 2003, published 2004).

On to `COc1cc(C=CC(=O)CC(=O)C=Cc2ccc(O)c(OC)c2)ccc1O` [curcumin, 1,7-bis[4-Hydroxy-3-methoxyphenyl]-1,6-heptadiene-3,5-dione], for which, in the data set on cortical neurons (25 μM, then glucose oxidase 100 mU/ml for 2 h), the “cell viability after glucose oxidase” value is 70 % of control. In addition, the “cell viability, GOX-induced cellular damage (in words)” value with cortical neurons (curcumin alone) is “able to overcome the apoptotic effects of GOX alone”. Further, the “cell viability, GOX-induced cellular damage in the presence of SnPP” value in the data set with cortical neurons (curcumin plus SnPP 40 μM) was “only partially in combination with SnPP”. Moreover, the “maximal heme oxygenase activity, increase over control” value with heme oxygenase (25 μM, 6h) is given as 10 fold. Also, the heme oxygenase activity entry is “gradually decreased to those of control values” in the data set on heme oxygenase (50 μM) and “concentration-dependent increase in heme oxygenase activity” in the data set with heme oxygenase (1-50 μM, 6h). In addition, the “dose-dependent induction of heme oxygenase activity” value in the data set on heme oxygenase (24h exposure) is on record as “maintained after 24h exposure”. Moreover, the hsp70 protein expression result in the data set with hsp70 is reported as “induced hsp70 protein expression”. Besides, in the data set on HO-1 mRNA, the “HO-1 mRNA expression” value was “dose-dependent over-expression of HO-1 mRNA”.
